Laboratory results: ChEMBL document CHEMBL4118120, “Identification of a novel selective small-molecule inhibitor of protein arginine methyltransferase 5 (PRMT5) by virtual screening, resynthesis and biological evaluations” (Bioorg Med Chem Lett, 2018)
The source made the active and inactive calls. No cut-off for these calls is given here.

What was measured:
[1] = target: T1, PRMT5/MEP50 complex (Homo sapiens) (UniProt O14744+Q9BQA1); assay: (§1) Inhibition of recombinant human N-terminal FLAG-tagged PRMT5 (2 to end residues) /human N-terminal His-tagged MEP50 (2 to end residues) expressed in HEK293F cells at 50 uM using substrate pretreated for 15 mins followed by substrate and [3H]-SAM addition measured after 60 mins by scintillation proximity assay relative to control; format: cell-based
PRMT5/MEP50 complex [2] = target: T2, PRMT5/MEP50 complex (Homo sapiens, UniProt O14744); assay: as §1, with “cells” for “cells at 50 uM”, “assay” for “assay relative to control”; format: cell-based
[3] = target: T1, PRMT5/MEP50 complex (Homo sapiens); assay: as §1, with “at 100” for “at 50”; format: cell-based
PRMT5/MEP50 complex [4] = target: T2, PRMT5/MEP50 complex; assay: Inhibition of recombinant human N-terminal FLAG-tagged PRMT5 (2 to end residues) /human N-terminal His-tagged MEP50 (2 to end residues) expressed in HEK293F cells using substrate measured after 60 mins by Alphalisa assay; format: cell-based
[5] = target: Protein arginine N-methyltransferase 1 (Homo sapiens, UniProt Q99873); assay: Inhibition of recombinant human N-terminal GST-tagged PRMT1 (2 to end residues) expressed in baculovirus infected Sf9 insect cells using peptide substrate pretreated for 15 mins followed by substrate/[3H]-SAM addition measured after 60 mins by scintillation proximity assay
[6] = target: T3, Histone-arginine methyltransferase CARM1 (Homo sapiens, UniProt Q86X55); assay: Inhibition of recombinant human N-terminal FLAG-tagged CARM1 (2 to end residues) expressed in HEK293F cells pretreated for 15 mins followed by substrate addition measured after 60 mins by Alphalisa assay; format: cell-based
T3 sequence (Q86X55 whole entry): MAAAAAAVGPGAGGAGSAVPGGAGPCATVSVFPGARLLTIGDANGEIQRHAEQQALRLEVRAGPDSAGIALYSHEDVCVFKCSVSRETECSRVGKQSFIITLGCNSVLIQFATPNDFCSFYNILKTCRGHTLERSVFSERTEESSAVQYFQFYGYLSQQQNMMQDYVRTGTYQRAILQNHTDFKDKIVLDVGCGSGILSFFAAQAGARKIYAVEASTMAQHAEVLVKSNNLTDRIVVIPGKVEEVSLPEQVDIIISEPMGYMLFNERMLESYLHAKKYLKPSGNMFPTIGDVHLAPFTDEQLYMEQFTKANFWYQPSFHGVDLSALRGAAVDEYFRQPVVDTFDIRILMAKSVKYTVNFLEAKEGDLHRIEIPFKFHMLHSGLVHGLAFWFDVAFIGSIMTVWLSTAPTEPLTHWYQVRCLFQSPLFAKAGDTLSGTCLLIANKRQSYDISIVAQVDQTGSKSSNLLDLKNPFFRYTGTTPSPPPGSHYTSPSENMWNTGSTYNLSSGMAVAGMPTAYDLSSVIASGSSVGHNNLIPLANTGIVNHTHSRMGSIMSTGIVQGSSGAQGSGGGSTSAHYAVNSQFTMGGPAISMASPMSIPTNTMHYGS

MV4-11 = assay: Antiproliferative activity against human MV411 cells after 4 days by Celltiiter-Glo luminescence cell viability assay; settings: MV4-11, 96 h
[7] = target: Protein arginine N-methyltransferase 5 (Homo sapiens) (UniProt O14744); assay: Inhibition of PRMT5 in human MV411 cells assessed as upregulation of Gas1 expression at 30 uM by SYBR green dye based RT-qPCR analysis; format: cell-based
PRMT5/MEP50 complex [8] = target: T2, PRMT5/MEP50 complex; assay: Inhibition of recombinant human N-terminal FLAG-tagged PRMT5 (2 to end residues) /human N-terminal His-tagged MEP50 (2 to end residues) expressed in HEK293F cells using biotinylated H4 derived peptide as substrate pretreated for 15 mins followed by substrate and [3H]-SAM addition measured after 60 mins by liquid scintillation counting method

T2 sequence (O14744 whole entry): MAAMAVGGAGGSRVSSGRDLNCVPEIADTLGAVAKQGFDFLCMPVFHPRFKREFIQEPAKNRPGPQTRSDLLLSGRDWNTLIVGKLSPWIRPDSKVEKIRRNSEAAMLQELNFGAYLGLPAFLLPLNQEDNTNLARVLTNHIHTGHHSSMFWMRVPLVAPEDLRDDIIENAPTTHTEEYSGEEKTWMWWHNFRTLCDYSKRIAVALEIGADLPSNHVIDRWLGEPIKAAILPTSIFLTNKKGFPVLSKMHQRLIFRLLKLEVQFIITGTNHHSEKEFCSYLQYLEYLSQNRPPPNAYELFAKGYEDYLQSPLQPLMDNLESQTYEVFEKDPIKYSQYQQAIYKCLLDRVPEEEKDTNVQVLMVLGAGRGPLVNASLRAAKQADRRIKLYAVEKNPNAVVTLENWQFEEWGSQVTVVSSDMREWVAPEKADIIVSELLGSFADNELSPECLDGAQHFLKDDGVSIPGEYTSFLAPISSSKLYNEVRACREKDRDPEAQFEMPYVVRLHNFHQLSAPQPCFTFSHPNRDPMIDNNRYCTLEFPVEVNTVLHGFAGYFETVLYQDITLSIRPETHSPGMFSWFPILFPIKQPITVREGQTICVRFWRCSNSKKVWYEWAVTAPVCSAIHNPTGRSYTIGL
T2 sequence (Q9BQA1 whole entry, further chain): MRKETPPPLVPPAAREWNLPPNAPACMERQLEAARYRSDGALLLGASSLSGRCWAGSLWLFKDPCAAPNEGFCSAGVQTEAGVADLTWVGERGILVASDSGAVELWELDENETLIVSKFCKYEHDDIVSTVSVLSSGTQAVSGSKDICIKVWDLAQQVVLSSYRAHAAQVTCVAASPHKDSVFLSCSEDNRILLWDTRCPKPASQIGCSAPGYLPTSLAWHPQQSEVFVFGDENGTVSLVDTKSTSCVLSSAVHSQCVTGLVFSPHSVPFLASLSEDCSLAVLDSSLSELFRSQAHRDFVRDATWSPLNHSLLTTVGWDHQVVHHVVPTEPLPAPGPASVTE
Protein arginine N-methyltransferase 1, sequence (Q99873 whole entry): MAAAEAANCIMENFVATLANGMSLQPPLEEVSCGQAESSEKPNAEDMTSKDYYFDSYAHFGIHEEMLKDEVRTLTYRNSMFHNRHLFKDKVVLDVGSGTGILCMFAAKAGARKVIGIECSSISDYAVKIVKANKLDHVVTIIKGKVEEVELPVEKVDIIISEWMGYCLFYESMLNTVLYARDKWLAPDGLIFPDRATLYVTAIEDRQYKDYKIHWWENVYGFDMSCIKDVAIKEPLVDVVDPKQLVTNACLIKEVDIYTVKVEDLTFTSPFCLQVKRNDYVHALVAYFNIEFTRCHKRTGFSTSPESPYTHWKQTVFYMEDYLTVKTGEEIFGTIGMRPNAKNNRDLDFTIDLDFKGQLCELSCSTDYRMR
Protein arginine N-methyltransferase 5 (Homo sapiens), sequence (O14744 whole entry): as the sequence (O14744 whole entry) above

inhibition [1] [%] | Compound | further results
9 | COc1ccc(-c2csc(NC(=S)NC(=O)c3ccc(C(C)(C)C)cc3)n2)cc1Br | 
71 | Cc1cc(-c2csc(Nc3ccc(O)c(C(=O)O)c3)n2)ccc1F | IC50 (PRMT5/MEP50 complex [2]): 22 µM
28.1 | COc1ccc(-c2csc(Nc3ccc(Cl)c(Cl)c3)n2)cc1 | 
 | COc1cc(Br)c(Br)c(/C=N/c2cccc(-c3nc4ccccc4[nH]3)c2)c1O | inhibition [3]: > 50%; IC50 (PRMT5/MEP50 complex [2]): 48 µM
0 | COc1ccc(Nc2nc(-c3ccc(OCc4ccc([N+](=O)[O-])cc4)cc3)cs2)cc1 | 
25 | CCOc1ccc(-c2csc(Nc3ccc(Cl)cc3)n2)cc1[N+](=O)[O-] | 
33 | COc1cc(Cl)c(OC)c(Nc2nc(-c3ccc(C)cc3)cs2)c1 | 
10 | COc1ccc(Nc2nc(-c3cc4ccccc4o3)cs2)cc1 | 
 | NC(=O)N/N=C/c1ccc(-c2ccc(Cl)cc2)o1 | IC50 (PRMT5/MEP50 complex [4]): 0.57 µM
3.5 | COc1ccc(Cl)cc1C(=O)Nc1nc(-c2ccc(C)c(C)c2)cs1 | 
8 | COc1ccc(Br)cc1C(=O)NC(=S)Nc1nc(-c2ccccc2)cs1 | 
27.4 | COc1cccc(Nc2nc(-c3ccc(OC)c(Br)c3)cs2)c1 | 
61 | O=C(O)COc1ccc(Br)cc1-c1csc(Nc2ccc(Br)cc2)n1 | IC50 (PRMT5/MEP50 complex [2]): 44 µM
7 | CC[n+]1c(-c2ccccc2)csc1Nc1ccc(O)c(C(=O)O)c1 | 
 | CCN(CC)CCCNC(=O)c1ccc(OC)c([N+](=O)[O-])c1 | inhibition [3]: > 50%; IC50 (PRMT5/MEP50 complex [2]): 42 µM
7 | CCCOc1ccc(Nc2nc(-c3cc4cc(OC)ccc4oc3=O)cs2)cc1 | 

inhibition [1] [%] | Compound | further results
3.5 | COc1ccc(-c2csc(NC(=O)c3ccccc3Cl)n2)cc1C | 
95 | COc1ccc(-c2csc(Nc3ccc(O)c(C(=O)O)c3)n2)cc1C | IC50 (PRMT5/MEP50 complex [2]): 14 µM; IC50 [5]: > 100 µM; IC50 [6]: > 100 µM; EC50 (MV4-11): 22.5 µM; inhibition [7]: Active
24 | COc1cc(Nc2nc(-c3cc(C)ccc3C)cs2)c(OC)cc1Cl | 
0 | COc1ccc(Nc2nc(-c3ccc(OCc4ccc(Br)cc4)cc3)cs2)cc1 | 
0 | CCOc1ccccc1Nc1nc(-c2cc3cc(OC)ccc3oc2=O)cs1 | 
23 | COc1ccc(OC)c(Nc2nc(-c3ccc4ccccc4c3)cs2)c1 | 
80 | Cc1ccc(C)c(-c2csc(Nc3ccc(O)c(C(=O)O)c3)n2)c1 | inhibition [3]: > 50%; IC50 (PRMT5/MEP50 complex [2]): 35 µM
25 | COc1ccc(-c2csc(Nc3ccc4c(c3)OCO4)n2)cc1Br | 
21 | COc1ccc(-c2csc(NC3=CS(=O)(=O)c4ccccc43)n2)cc1OC | 
0 | CCOc1cc(C(=O)Nc2nc(-c3ccc(C)cc3C)cs2)cc(OCC)c1OCC | 
 | OC(CNCc1c(OCc2ccccc2)ccc2ccccc12)c1ccccc1 (configuration not stated) | IC50 (PRMT5/MEP50 complex [8]): 2.8 µM
9 | COc1ccccc1Nc1nc(-c2cc3cc(Br)ccc3oc2=O)cs1 | 
20 | COc1ccc(OC)c(Nc2nc(-c3ccc(Cl)cc3Cl)cs2)c1 | 
6 | COc1ccccc1Nc1nc(-c2ccc3ccccc3c2)cs1 | 
26.4 | COc1ccc(-c2csc(Nc3ccc(C)c(Cl)c3)n2)cc1F | 
